Source: patent US12303511B2 (priority 2018, dated 2025)

Legend:
[1] = test system: transgenic C. elegans (tgMOR) that express mammalian MOR; conditions: in vivo
Gpr139−/− mice [2] = experiment: Conditioned place preference paradigm; type: in vivo; conditions: Gpr139−/− mice vs wild-type
Gpr139−/− mice [3] = conditions: Gpr139−/− mice vs wild-type, multiple drug doses

CN1CC[C@]23c4c5ccc(O)c4O[C@H]2[C@@H](O)C=C[C@H]3[C@H]1C5 [morphine]
time to maximum paralysis and recovery [1]: reached maximum paralysis and recovered more quickly
rewarding effects (Gpr139−/− mice [2]): substantially augmented responses
analgesia, maximal response and duration of effect (Gpr139−/− mice [3]): significantly increased morphine analgesia
